Data from patent US9114171B2, “Racecadotril liquid compositions” (McNeil-PPC, Inc., priority 2012, dated 2015).

Test: Stability of Racecadotril in Water
Type: physicochemical
Settings: room temperature and 40° C.
Experimental: For comparative purposes, the stability of racecadotril was tested at room temperature and at 40° C. Test Methods Sample Preparation: • 1. Pipet 1 mL of Racecadotril solution into a 100 mL volumetric flask (V.F.) • 2. Dilute to volume with the same buffer used in the solution preparation. • 3. Further dilute the sample solution to about 0.1 mg/mL if necessary. […] Parameters may be modified to optimize chromatography. • The assay of Racecadotril is determined by using the external standard injected. The degradation products levels are determined by % peak area relative to the Racecadotril peak. Chromatographic Conditions (European Pharmacopoeia Racecadotril Method): […]

CC(=O)SCC(Cc1ccccc1)C(=O)NCC(=O)OCc1ccccc1 (racemic) [Racecadotril]
racecadotril present (in water, at 1 week): less than 1%
stability in water: unstable after 12 hours
